From patent US4552843A, “Process for producing an acidic polycyclic ether antibiotic by cultivation of a novel strain of Streptomyces endus subspecies aureus” (Pfizer Inc., priority 1984, dated 1985)

Legend:
coccidial infections = assay: activity against coccidial infections in poultry; details: in vivo
Experimental: Efficacy data for Antibiotic CP-63,517 and its salts against coccidial infections in chickens was obtained in the following fashion. Groups of 3-5 ten-day old SPF white leghorn cockerel chicks were fed a mash diet containing Antibiotic CP-63,517, its sodium and/or potassium salt, or the known agents Monensin or Stenorol uniformly dispersed therein. After being on this ration for 24 hours each chick was inoculated per os with oocysts of the particular species of Eimeria being tested. Other groups of 3-5 ten-day old chicks were fed a similar mash diet free of any test compound. They were also infected after 24 hours and served as infected controls. Yet another group of 3-5 ten-day old chicks were fed the mash diet free of any test compound and were not infected with coccidia. These served as normal controls. The results of treatment were evaluated after five days in the case of E. acervulina, and six days for other challenges.

rumen fluid = assay: in vitro rumen technique, propionic acid production; design: species or system calf; details: for increase in propionic acid: comparison with Salinomycin; for increase in production of propionic acid over control: comparison with Monensin
Experimental: The value of animal feeds generally has been determined directly by feeding the animal. British Pat. No. 1,197,826 details an in vitro rumen technique whereby the changes occurring in feeds brought about by microorganisms are measured more readily and with great accuracy in the evaluation of animal feeds. This technique involves the use of an apparatus in which the digestive processes of the animals are conducted and studied in vitro. The animal feeds, rumen inoculum and various growth promotants are introduced into and withdrawn from a laboratory unit under carefully controlled conditions and the changes taken place are studied critically and progressively during the consumption of the feed by the microorganisms. […] The change in propionic acid content is expressed as percent of the propionic acid content found in the control rumen fluid. Long term in vivo feeding studies are used to show a reliable correlation between propionic acid increase in the rumen fluid and improved animal performance.
Rumen fluid is collected from a fistulated calf which is fed on a commercial fattening ration plus hay. The rumen fluid is immediately filtered through cheese cloth, and 10 ml added to a 50 ml conical flask containing 400 mg of standard substrate (68% corn starch +17% cellulose +15% extracted soybean meal), 10 ml of a pH 6.8 buffer and the test compound. The flasks are gassed with oxygen free nitrogen for about two minutes, and incubated in a shaking water bath at 39° C. for about 16 hours. All tests are conducted in triplicate.
After incubation, 5 ml of the sample is mixed with 1 ml of 25% metaphosphoric acid. After 10 minutes 0.25 ml of formic acid is added and the mixture centrifuged at 1500 RPM for 10 minutes. Samples are then analyzed by gas-liquid chromatography by the method of D. W. Kellog, J. Dairy Science, 52, 1690 (1969). Peak heights for acetic, propionic and butyric acids are determined for samples from untreated and treated incubation flasks.

COC1CCC(OC2CC3(CC(O)C(C)C(C(C)C=C(C)C(=O)C(C)CC(C)C(=O)O)O3)OC2(C)C2CCC(C)C3(OC(C4OC(O)(CO)C(C)CC4C)CC3C)O2)OC1C (centres unmarked) [CP-63,517]
activity against coccidial infections in poultry (coccidial infections): excellent activity | increase in propionic acid (rumen fluid; 5 μg/ml): about 66% | increase in propionic acid (rumen fluid; 20 μg/ml): about 86% | increase in production of propionic acid over control (rumen fluid; 10 micrograms per milliliter (10 μg/ml)): 95% | increase in production of propionic acid over control (rumen fluid; 20 micrograms per milliliter): 96%
